This is an account of results in paper PMC9032385, “A2A Adenosine Receptor Antagonists: Are Triazolotriazine and Purine Scaffolds Interchangeable?” (Molecules, 2022).

One series has as its target T1, human recombinant A2AAR (Homo sapiens, UniProt P29274).
T1 construct: expressed in transfected cells; membrane preparation
The experiment in a line: Radioligand binding at human A2AAR ([3H]NECA displacement, CHO cell membranes). The method, then: Most of the compounds were also evaluated at A2BARs in a functional study using the GloSensor cAMP assay. […] In the case of A2BARs, Ki-values were calculated from IC50-values determined by the inhibition of NECA-stimulated adenylyl cyclase activity.
Preparation of membranes: Cell membranes for binding assays were prepared mechanically detaching the cells from the petri and suspending them in a cold hypotonic buffer (5 mM Tris/HCl, 2 mM EDTA, pH 7.4). The cell suspension was homogenized (Ultra-Turrax, 2 × 15 s at maximum speed) and the homogenate centrifuged for 10 min (4 °C) to 1000× g. […] The amount of the protein suspension was determined according to the […] using the BCA Protein Assay Kit (Pierce), frozen in liquid nitrogen, and stored at −80 °C.
Binding assays: The dissociation constants of the radioligand (KD) were calculated through saturation assays, while the dissociation constants of the compounds under study (Ki) were determined by competition experiments. All binding data were calculated by nonlinear regression curves using the software GraphPad Prism 5 (GraphPad Software, San Diego, CA, USA). The increasing concentrations of the radioligand saturation binding ([^3H]-CCPA for the A1 receptor subtype, [^3H]-NECA for the A2A receptor subtype, and [^3H]-HEMADO for the A3 receptor) subtype were incubated in a total volume of 250 μL containing 0.2 U/mL of Ado deaminase (ADA) and 12 micrograms of membrane proteins in the specific buffer. In competition experiments for the A1 receptor subtype, each compound was added at increasing concentrations, to the well containing 1 nM of [^3H]-CCPA, to a final volume of 200 μL. The samples were left to incubate for 3 h at room temperature, filtered in a filter 96-well plate (UniFilter GF/C, Perkin-Elmer Life and Analytical Science, Boston, MA) using the FilterMate Cell Harvester (Perkin-Elmer), and washed 3 times with cold distilled water. After drying the filter plate at 40 °C for 30′, they 20 μL of scintillating liquid (Microscint-20, Perkin-Elmer) was added to each well, and then the radioactivity was quantized with the MicroBeta2 Plate Counter (Perkin-Elmer). The conditions for binding experiments at A2A and A3 receptor subtypes were essentially the same as for the A1AR using [^3H]-NECA (N-ethylcarboxyamideAdo) at a concentration of 10 nM and [^3H]-HEMADO (2-(1-hexyne)-N^6-methylAdo) at a concentration of 1 nM as radioligands, respectively. The samples were incubated with 12 micrograms of protein for 3 h at room temperature and filtered as described above.
The non-specific binding was determined in the presence of 1 mM theophylline for the A1AR, or 100 µM R-PIA (N^6-(1-methyl-2-phenylethyl)Ado) for the A2A and A3 receptors.

Series [1] concerns BV-2 murine microglial cells. The experiment in a line: MTT viability assay in BV-2 cells. Type of series: cell-based. Particulars: 24 h, 50–5000 nM, up to 5 μM. The method, then:
First of all, we verified the potential cytotoxicity of 13 in our cell model system. BV-2 cells were treated with increasing concentrations of the compound for 24 h and cell viability was evaluated by MTT assay (Figure 4A).
Cell Cultures and Treatments: BV-2 murine microglial cells (a gift from Prof. Elisabetta Blasi of the University of Modena and Reggio Emilia, Modena, Italy) were maintained at 37 °C and 5% CO2 in a humidified incubator and grown in DMEM supplemented with 10% (v/v) low-endotoxin fetal bovine serum (Euroclone—Milan, Italy), 2 mM L-glutamine, 50 U/mL penicillin, and 50 μg/mL streptomycin (Sigma-Aldrich–Merck, Milan, Italy). Cells were seeded at 50,000 cells/mL in 96-well tissue culture plates for the viability assay, in 6-well tissue culture plates for the Griess assay and RT-PCR assay. BV-2 cells were treated for 24 h with ANR 94 or 13 at different concentrations and then exposed to LPS (100 ng/mL; Sigma-Aldrich–Merck) for a further 24 h.
MTT Viability Assay: MTT assay was performed to quantify the viability of BV-2 cells as previously reported. […] The absorbance was measured at 595 nm using a microplate spectrophotometer (VICTOR3 V Multilabel Counter; PerkinElmer, Wellesley, MA, USA). Data are expressed as a percentage of the control cells, which is considered 100% cell viability.
In general terms: Tetrazolium dyes change colour on reduction, which living cells bring about.

Each structure is given as a SMILES string.

T1 sequence (P29274 whole entry): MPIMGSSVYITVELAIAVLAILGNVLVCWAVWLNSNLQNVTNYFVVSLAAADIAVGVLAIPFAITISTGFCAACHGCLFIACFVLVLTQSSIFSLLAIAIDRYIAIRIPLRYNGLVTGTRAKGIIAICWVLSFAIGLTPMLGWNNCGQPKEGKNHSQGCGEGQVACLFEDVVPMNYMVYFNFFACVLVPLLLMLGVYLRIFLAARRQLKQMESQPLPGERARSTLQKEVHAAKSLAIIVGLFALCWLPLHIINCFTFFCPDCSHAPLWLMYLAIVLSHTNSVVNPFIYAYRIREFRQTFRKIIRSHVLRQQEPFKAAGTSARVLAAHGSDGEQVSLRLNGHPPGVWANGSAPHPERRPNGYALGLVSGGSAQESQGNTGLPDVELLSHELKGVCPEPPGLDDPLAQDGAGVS

What is called Ki is the equilibrium dissociation constant of an inhibitor or competing ligand from its target. Consider `CCn1c(-c2ccco2)nc2c(N)nc(NCCc3ccc(O)cc3)nc21` [compound 13, 4-(2-((6-Amino-9-ethyl-8-(furan-2-yl)-9H-purin-2-yl)amino)ethyl)phenol], for which the Ki on human recombinant A2AAR (displacement of [3H]NECA, CHO membranes, n = 3–5, means ± standard errors) stood at 1.8 nM. Also, on human recombinant A2AAR (ratio of Ki values), the “selectivity A1/A2A” value is 28, the “selectivity A2B/A2A” value is listed as 796 and the “selectivity A3/A2A” value came to 7. The “cytotoxicity (cell viability, MTT)” value in series [1] is recorded as “did not show any cytotoxicity”.
